Assay results published in the supplement of paper PMC11451515.

How the values were obtained:
Details in all cases: 48 h
SEM cells [1] = assay: AUC of viability dose-response curve (% viability x log10 dose units); higher = less sensitive
How it was run: (§1)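 Leukemia cells adapted to each medium were seeded in 1536-well plates (500 or 1000 cells/well) and given library compounds in DMSO for 48 h at 37°C. The 11 threefold doses spanned 47 μM to 0.79 nM, and CellTiter-Glo One luminescence was normalised per plate to DMSO and cell-free wells before four-parameter log-logistic fitting on log10 dose. Area under the curve was integrated with the trapezoidal rule, scaling curves above full viability and removing curves that failed quality control.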

P12-Ichikawa [2] = assay: as above
How it was run: as §1

NOMO1 [3] = assay: as above
How it was run: as §1

SEM cells [4] = assay: cell viability relative to DMSO control; higher = less cytotoxic
How it was run: (§2)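 Viability was expressed as a per-plate percentage of DMSO wells, with cell-free wells as background. Leukemia cells (NOMO1 or SEM at 500 cells/well, P12-Ichikawa at 1000 cells/well) were adapted for at least four passages in each medium and seeded in 1536-well plates (5 μl). Library compounds in DMSO were pin-dosed over an 11-point threefold series from 47 μM to 0.79 nM, and CellTiter-Glo One luminescence was read after 48 h at 37°C.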

P12-Ichikawa [5] = assay: as above
How it was run: as §2

NOMO1 [6] = assay: as above
How it was run: as §2

CCCCCCOC(=O)/N=C(/N)c1ccc(NCc2nc3cc(C(=O)N(CCC(=O)OCC)c4ccccn4)ccc3n2C)cc1
AUC of viability dose-response curve
Details	NOMO1 [3]	P12-Ichikawa [2]	SEM cells [1]
HPLM + 10% dialyzed FBS	443	475	448
RPMI 5 mM glucose + 10% FBS	449	465	468
RPMI 5 mM glucose + 10% dialyzed FBS	449	467	475

cell viability [%], HPLM + 10% dialyzed FBS
Details	P12-Ichikawa [5]	SEM cells [4]
0.000781 µM	114	112
0.00234 µM	130	113
0.00702 µM	122	124
0.0211 µM	131	125
0.0632 µM	109	123
0.19 µM	138	125
0.569 µM	138	129
1.71 µM	125	134
5.12 µM	145	145
15.4 µM	121	137
46.1 µM	106	125

COc1ccc2[nH]c([S+]([O-])Cc3ncc(C)c(OC)c3C)nc2c1 (configuration not stated)
AUC of viability dose-response curve
Details	NOMO1 [3]	P12-Ichikawa [2]	SEM cells [1]
HPLM + 10% dialyzed FBS	411	427	354
RPMI 5 mM glucose + 10% FBS	434	398	411
RPMI 5 mM glucose + 10% dialyzed FBS	418	363	392

cell viability [%]
Details	NOMO1 [6]	P12-Ichikawa [5]	SEM cells [4]
HPLM + 10% dialyzed FBS, 0.000781 µM	89.2	82.5	83.2
HPLM + 10% dialyzed FBS, 0.00234 µM	78.3	85.9	84.8
HPLM + 10% dialyzed FBS, 0.00702 µM	90.9	92.3	66.8
HPLM + 10% dialyzed FBS, 0.0211 µM	88.4	90	87.9
HPLM + 10% dialyzed FBS, 0.0632 µM	95.9	91.6	71.9
HPLM + 10% dialyzed FBS, 0.19 µM	83.7	90	70.5
HPLM + 10% dialyzed FBS, 0.569 µM	85.5	90.4	86.6
HPLM + 10% dialyzed FBS, 1.71 µM	89.9	92	42.6
HPLM + 10% dialyzed FBS, 5.12 µM	87.3	95.5	72.8
HPLM + 10% dialyzed FBS, 15.4 µM	86.6	95.4	74.9
HPLM + 10% dialyzed FBS, 46.1 µM	59.8	78.4	75.7
RPMI 5 mM glucose + 10% FBS, 0.000781 µM	74.9	73.7	83.8
RPMI 5 mM glucose + 10% FBS, 0.00234 µM	100	86.8	91
RPMI 5 mM glucose + 10% FBS, 0.00702 µM	78.3	81.3	83.9
RPMI 5 mM glucose + 10% FBS, 0.0211 µM	97	89.6	101
RPMI 5 mM glucose + 10% FBS, 0.0632 µM	80.7	85.1	77.3
RPMI 5 mM glucose + 10% FBS, 0.19 µM	92	78	100
RPMI 5 mM glucose + 10% FBS, 0.569 µM	90	85.8	96.8
RPMI 5 mM glucose + 10% FBS, 1.71 µM	100	91.9	63.8
RPMI 5 mM glucose + 10% FBS, 5.12 µM	96.3	85.2	87.5
RPMI 5 mM glucose + 10% FBS, 15.4 µM	93.5	84.9	87.1
RPMI 5 mM glucose + 10% FBS, 46.1 µM	89.1	67.4	69.8
RPMI 5 mM glucose + 10% dialyzed FBS, 0.000781 µM	70.7	79.2	81.4
RPMI 5 mM glucose + 10% dialyzed FBS, 0.00234 µM	91.7	79.8	83.5
RPMI 5 mM glucose + 10% dialyzed FBS, 0.00702 µM	68	78.2	77
RPMI 5 mM glucose + 10% dialyzed FBS, 0.0211 µM	98.7	77	95.8
RPMI 5 mM glucose + 10% dialyzed FBS, 0.0632 µM	93.4	76.8	76.7
RPMI 5 mM glucose + 10% dialyzed FBS, 0.19 µM	95.6	75.1	86.8
RPMI 5 mM glucose + 10% dialyzed FBS, 0.569 µM	87.8	76.7	105
RPMI 5 mM glucose + 10% dialyzed FBS, 1.71 µM	97.9	76.4	69.7
RPMI 5 mM glucose + 10% dialyzed FBS, 5.12 µM	86	70.6	76.3
RPMI 5 mM glucose + 10% dialyzed FBS, 15.4 µM	91.1	79.6	83.6
RPMI 5 mM glucose + 10% dialyzed FBS, 46.1 µM	82.3	66.6	68.3

CC(C)N(CC[C@H](c1ccccc1)c1cc(CO)ccc1O)C(C)C
AUC of viability dose-response curve
Details	NOMO1 [3]	P12-Ichikawa [2]	SEM cells [1]
HPLM + 10% dialyzed FBS	455	464	462
RPMI 5 mM glucose + 10% FBS	468	461	473
RPMI 5 mM glucose + 10% dialyzed FBS	462	466	461

cell viability [%], HPLM + 10% dialyzed FBS
Details	P12-Ichikawa [5]	SEM cells [4]
0.000781 µM	127	106
0.00234 µM	123	118
0.00702 µM	120	125
0.0211 µM	126	141
0.0632 µM	139	131
0.19 µM	137	139
0.569 µM	140	129
1.71 µM	138	134
5.12 µM	129	151
15.4 µM	128	135
46.1 µM	135	119

C[C@]12CC[C@@H]3c4ccc(O)cc4CC[C@H]3[C@@H]1C[C@@H](O)[C@@H]2O
AUC of viability dose-response curve
Details	NOMO1 [3]	P12-Ichikawa [2]	SEM cells [1]
HPLM + 10% dialyzed FBS	436	466	468
RPMI 5 mM glucose + 10% FBS	463	468	419
RPMI 5 mM glucose + 10% dialyzed FBS	447	466	454

cell viability [%]
Details	NOMO1 [6]	P12-Ichikawa [5]	SEM cells [4]
HPLM + 10% dialyzed FBS, 0.000781 µM	–	117	105
HPLM + 10% dialyzed FBS, 0.00234 µM	–	115	116
HPLM + 10% dialyzed FBS, 0.00702 µM	–	114	108
HPLM + 10% dialyzed FBS, 0.0211 µM	–	120	119
HPLM + 10% dialyzed FBS, 0.0632 µM	–	113	113
HPLM + 10% dialyzed FBS, 0.19 µM	–	111	121
HPLM + 10% dialyzed FBS, 0.569 µM	–	119	113
HPLM + 10% dialyzed FBS, 1.71 µM	–	110	116
HPLM + 10% dialyzed FBS, 5.12 µM	–	112	113
HPLM + 10% dialyzed FBS, 15.4 µM	–	104	105
HPLM + 10% dialyzed FBS, 46.1 µM	–	104	91.3
RPMI 5 mM glucose + 10% FBS, 0.000781 µM	116	120	86.9
RPMI 5 mM glucose + 10% FBS, 0.00234 µM	114	115	83.6
RPMI 5 mM glucose + 10% FBS, 0.00702 µM	106	116	97.3
RPMI 5 mM glucose + 10% FBS, 0.0211 µM	114	114	95.6
RPMI 5 mM glucose + 10% FBS, 0.0632 µM	114	125	91.5
RPMI 5 mM glucose + 10% FBS, 0.19 µM	107	129	89.3
RPMI 5 mM glucose + 10% FBS, 0.569 µM	123	126	91.8
RPMI 5 mM glucose + 10% FBS, 1.71 µM	117	124	79.7
RPMI 5 mM glucose + 10% FBS, 5.12 µM	118	123	90.9
RPMI 5 mM glucose + 10% FBS, 15.4 µM	118	108	82.6
RPMI 5 mM glucose + 10% FBS, 46.1 µM	115	107	66.4
RPMI 5 mM glucose + 10% dialyzed FBS, 0.000781 µM	115	116	127
RPMI 5 mM glucose + 10% dialyzed FBS, 0.00234 µM	121	120	120
RPMI 5 mM glucose + 10% dialyzed FBS, 0.00702 µM	129	125	114
RPMI 5 mM glucose + 10% dialyzed FBS, 0.0211 µM	125	123	128
RPMI 5 mM glucose + 10% dialyzed FBS, 0.0632 µM	120	115	129
RPMI 5 mM glucose + 10% dialyzed FBS, 0.19 µM	110	117	115
RPMI 5 mM glucose + 10% dialyzed FBS, 0.569 µM	114	123	126
RPMI 5 mM glucose + 10% dialyzed FBS, 1.71 µM	113	118	106
RPMI 5 mM glucose + 10% dialyzed FBS, 5.12 µM	110	109	112
RPMI 5 mM glucose + 10% dialyzed FBS, 15.4 µM	105	114	116
RPMI 5 mM glucose + 10% dialyzed FBS, 46.1 µM	95.9	105	92.4
